Among the data in patent US12612409B2, “Pyrrolopyrimidines as CFTR potentiators” (Cystic Fibrosis Foundation, priority 2016, dated 2026) are EC50 values, retold here.

Each structure is given as a SMILES string. pEC50: −log10 of the molar value.

Assay [1] deals with T1, recombinant F508del V470 CFTR in Fischer rat thyroid (FRT) cells (Homo sapiens, UniProt P13569, DEL508-508).
T1 construct: expressed in transfected cells
In words: FRT ion flux assay of F508del CFTR potentiation. It counts as cell-based. The conditions noted are these: FRT cells expressing F508del V470 CFTR, forskolin 20 uM, 27° C. pre-incubation. An outline of the steps:
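FRT cells co-expressing F508del V470 CFTR and halide-sensitive YFP, temperature-corrected at 27° C for 16-24 h, then treated 30 min with compound plus 20 uM forskolin. Iodide addition quenches YFP, read after ~21 s; ratio scaled to DMSO (0%) and positive control potentiator (100%).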

Assay [2] concerns the target T2, CFTR in F508del/F508del primary CF hBE cells (Homo sapiens, UniProt P13569, DEL508-508).
T2 construct: Primary cystic fibrosis human bronchial epithelial (CF hBE) cells were expanded and cultured; endogenous in cells; host or cells: primary CF human bronchial epithelial cells, genotype F508del/F508del
In words: Ussing chamber electrophysiology assay of CFTR potentiation in F508del/F508del CF bronchial epithelial cells (27° C.). It counts as cell-based. An outline of the steps:
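Well-differentiated primary CF hBE cells (>30 days air/liquid interface) in Ussing chambers, HEPES saline both sides, voltage clamped to zero. Amiloride 30 uM, forskolin 10 uM, four rising compound concentrations, then CFTRinh-172 20 uM added at 20-25 min intervals. Short-circuit current scaled to DMSO (0%) and a positive control potentiator maximum (100%).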

T2 sequence (P13569 with tags, fused parts or gaps DEL508-508): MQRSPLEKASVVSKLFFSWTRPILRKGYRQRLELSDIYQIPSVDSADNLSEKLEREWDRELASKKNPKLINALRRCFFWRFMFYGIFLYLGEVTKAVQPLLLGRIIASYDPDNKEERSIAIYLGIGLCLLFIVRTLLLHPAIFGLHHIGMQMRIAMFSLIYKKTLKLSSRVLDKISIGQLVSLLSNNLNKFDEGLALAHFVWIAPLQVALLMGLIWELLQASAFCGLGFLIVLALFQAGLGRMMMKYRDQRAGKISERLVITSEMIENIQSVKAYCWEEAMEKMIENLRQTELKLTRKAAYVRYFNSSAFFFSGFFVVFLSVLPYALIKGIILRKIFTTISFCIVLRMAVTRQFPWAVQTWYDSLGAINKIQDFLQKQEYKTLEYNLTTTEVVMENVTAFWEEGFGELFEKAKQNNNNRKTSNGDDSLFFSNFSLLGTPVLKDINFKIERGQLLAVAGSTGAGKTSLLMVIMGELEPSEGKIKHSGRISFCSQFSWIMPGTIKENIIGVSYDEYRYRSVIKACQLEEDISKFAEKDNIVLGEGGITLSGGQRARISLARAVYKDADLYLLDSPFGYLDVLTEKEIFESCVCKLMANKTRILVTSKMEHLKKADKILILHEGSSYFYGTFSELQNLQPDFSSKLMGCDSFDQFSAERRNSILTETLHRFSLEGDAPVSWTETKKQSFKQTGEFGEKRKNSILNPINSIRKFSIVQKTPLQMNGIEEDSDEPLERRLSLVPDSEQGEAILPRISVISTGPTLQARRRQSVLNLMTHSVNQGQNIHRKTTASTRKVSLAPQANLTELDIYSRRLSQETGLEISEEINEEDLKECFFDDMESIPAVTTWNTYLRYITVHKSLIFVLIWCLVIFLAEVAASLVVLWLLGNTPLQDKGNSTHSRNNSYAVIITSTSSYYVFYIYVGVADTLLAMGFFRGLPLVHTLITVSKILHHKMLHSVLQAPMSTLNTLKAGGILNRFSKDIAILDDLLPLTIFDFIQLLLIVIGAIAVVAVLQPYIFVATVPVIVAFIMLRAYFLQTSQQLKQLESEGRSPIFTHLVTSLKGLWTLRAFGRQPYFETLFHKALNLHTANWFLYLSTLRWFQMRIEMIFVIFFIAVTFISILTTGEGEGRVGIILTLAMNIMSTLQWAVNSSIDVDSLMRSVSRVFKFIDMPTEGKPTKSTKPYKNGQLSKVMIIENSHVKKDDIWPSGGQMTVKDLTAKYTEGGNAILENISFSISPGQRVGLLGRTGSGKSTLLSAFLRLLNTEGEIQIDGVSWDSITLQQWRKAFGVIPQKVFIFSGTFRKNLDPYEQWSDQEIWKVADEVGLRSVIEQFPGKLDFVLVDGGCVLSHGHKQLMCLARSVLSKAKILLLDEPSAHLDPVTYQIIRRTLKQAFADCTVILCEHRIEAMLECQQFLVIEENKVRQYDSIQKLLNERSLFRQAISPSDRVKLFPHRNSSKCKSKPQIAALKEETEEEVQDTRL
T1 sequence (P13569 with tags, fused parts or gaps DEL508-508): as above

By pEC50 is commonly meant −log10 of the EC50, conventionally taken in molar units. On to `CCOc1ccc(-c2cn(Cc3cn(-c4ccccc4F)nn3)c3ncnc(N)c23)cc1F` [Example 75, 5-(4-Ethoxy-3-fluorophenyl)-7-{[1-(2-fluorophenyl)-1H-1,2,3-triazol-4-yl]methyl}-7H-pyrrolo[2,3-d]pyrimidin-4-amine], for which the figures for the negative-log EC50 (pEC50) in assay [1] and in assay [2] were 7.00 and 7.42, respectively.

Take `Nc1ncnc2c1c(-c1ccc(OC3CC3)cc1)cn2Cc1cn(-c2ccccc2F)nn1` [Example 77, 5-[4-(Cyclopropyloxy)phenyl]-7-{[1-(2-fluorophenyl)-1H-1,2,3-triazol-4-yl]methyl}-7H-pyrrolo[2,3-d]pyrimidin-4-amine]: the pEC50 in assay [1] is 7.20; in assay [2], 7.76.

In the case of `COc1cc(C#N)ccc1-c1cn(Cc2cn(-c3ccccc3F)nn2)c2ncnc(N)c12` [Example 79, 4-(4-Amino-7-{[1-(2-fluorophenyl)-1H-1,2,3-triazol-4-yl]methyl}-7H-pyrrolo[2,3-d]pyrimidin-5-yl)-3-methoxybenzonitrile], the pEC50 is 7.12 in assay [1] and 6.82 in assay [2].

Turning to `Nc1ncnc2c1c(-c1ccc3[nH]ccc3c1)cn2Cc1cn(-c2ccccc2F)nn1` [Example 81, 7-{[1-(2-Fluorophenyl)-1H-1,2,3-triazol-4-yl]methyl}-5-(1H-indol-5-yl)-7H-pyrrolo[2,3-d]pyrimidin-4-amine], the figures for the pEC50 in assay [1] and in assay [2] were 6.42 and 6.47, respectively.

As to `Nc1ncnc2c1c(-c1ccc(OC(F)F)cc1)cn2Cc1cn(-c2ccccc2F)nn1` [Example 83, 5-[4-(Difluoromethoxy)phenyl]-7-{[1-(2-fluorophenyl)-1H-1,2,3-triazol-4-yl]methyl}-7H-pyrrolo[2,3-d]pyrimidin-4-amine], the pEC50 in assay [1] is 7.14; in assay [2], 7.40.

Turning to `COc1ccc(-c2cn(Cc3cn(-c4ccccc4F)nn3)c3ncnc(N)c23)cc1` [Example 85, 7-{[1-(2-Fluorophenyl)-1H-1,2,3-triazol-4-yl]methyl}-5-(4-methoxyphenyl)-7H-pyrrolo[2,3-d]pyrimidin-4-amine], the values for the pEC50 in assay [1] and in assay [2] were 7.13 and 7.24, respectively.

Consider `Cn1ncc2cc(-c3cn(Cc4cn(-c5ccccc5F)nn4)c4ncnc(N)c34)ccc21` [Example 86, 7-{[1-(2-Fluorophenyl)-1H-1,2,3-triazol-4-yl]methyl}-5-(1-methyl-1H-indazol-5-yl)-7H-pyrrolo[2,3-d]pyrimidin-4-amine], for which the results for the pEC50 in assay [1] and in assay [2] were 6.27 and 6.18, respectively.

In the case of `COc1ccc(-c2cn(C(C)c3cn(-c4ccccc4F)nn3)c3ncnc(N)c23)c(OC)c1` (stereo not shown) [Example 87, 5-(2,4-Dimethoxyphenyl)-7-{1-[1-(2-fluorophenyl)-1H-1,2,3-triazol-4-yl]ethyl}-7H-pyrrolo[2,3-d]pyrimidin-4-amine], the results for the negative-log EC50 (pEC50) in assay [1] and in assay [2] were 6.99 and 7.26, respectively.

As to `CSc1ccc(-c2cn(C(C)c3cn(-c4ccccc4F)nn3)c3ncnc(N)c23)cc1` (stereo not shown) [Example 88, 7-{1-[1-(2-Fluorophenyl)-1H-1,2,3-triazol-4-yl]ethyl}-5-[4-(methylsulfanyl)phenyl]-7H-pyrrolo[2,3-d]pyrimidin-4-amine], the negative logarithm of the EC50 (pEC50) in assay [1] was 7.38; in assay [2] it was 7.42.

In the case of `CC(c1cn(-c2ccccc2F)nn1)n1cc(-c2ccc(OC(F)F)cc2)c2c(N)ncnc21` (stereo not shown) [Example 89, 5-[4-(Difluoromethoxy)phenyl]-7-{1-[1-(2-fluorophenyl)-1H-1,2,3-triazol-4-yl]ethyl}-7H-pyrrolo[2,3-d]pyrimidin-4-amine], the pEC50 is 7.13 in assay [1] and 7.44 in assay [2].

On to `CSc1ccc(-c2cn(C(C)c3cn(-c4ccccc4F)nn3)c3ncnc(N)c23)c(F)c1` (stereo not shown) [Example 90, 5-[2-Fluoro-4-(methylsulfanyl)phenyl]-7-{1-[1-(2-fluorophenyl)-1H-1,2,3-triazol-4-yl]ethyl}-7H-pyrrolo[2,3-d]pyrimidin-4-amine], for which the figures for the pEC50 in assay [1] and in assay [2] were 7.34 and 7.46, respectively.

For `CC(c1cn(-c2ccccc2F)nn1)n1cc(-c2ccccc2)c2c(N)ncnc21` (stereo not shown) [Example 94, 7-{1-[1-(2-Fluorophenyl)-1H-1,2,3-triazol-4-yl]ethyl}-5-phenyl-7H-pyrrolo[2,3-d]pyrimidin-4-amine], the pEC50 in assay [1] was 6.44; in assay [2], 6.85.

As for `CC(=O)c1ccc(-c2cn(C(C)c3cn(-c4ccccc4F)nn3)c3ncnc(N)c23)cc1` (stereo not shown) [Example 96, 1-[4-(4-Amino-7-{1-[1-(2-fluorophenyl)-1H-1,2,3-triazol-4-yl]ethyl}-7H-pyrrolo[2,3-d]pyrimidin-5-yl)phenyl]ethanone], the negative-log EC50 (pEC50) in assay [1] is 7.01; in assay [2] it was 6.88.

Regarding `CC(c1cn(-c2ccccc2F)nn1)n1cc(-c2cccc(C(F)(F)F)c2)c2c(N)ncnc21` (stereo not shown) [Example 97, 7-{1-[1-(2-Fluorophenyl)-1H-1,2,3-triazol-4-yl]ethyl}-5-[3-(trifluoromethyl)phenyl]-7H-pyrrolo[2,3-d]pyrimidin-4-amine], the pEC50 was 6.64 in assay [1] and 6.79 in assay [2].

On to `CC(c1cn(-c2ccccc2F)nn1)n1cc(-c2ccc(Cl)c(F)c2)c2c(N)ncnc21` (stereo not shown) [Example 98, 5-(4-Chloro-3-fluorophenyl)-7-{1-[1-(2-fluorophenyl)-1H-1,2,3-triazol-4-yl]ethyl}-7H-pyrrolo[2,3-d]pyrimidin-4-amine], for which the pEC50 was 7.39 in assay [1] and 7.55 in assay [2].

Take `CC(c1cn(-c2ccccc2F)nn1)n1cc(-c2cc(F)cc(Cl)c2)c2c(N)ncnc21` (stereo not shown) [Example 99, 5-(3-Chloro-5-fluorophenyl)-7-{1-[1-(2-fluorophenyl)-1H-1,2,3-triazol-4-yl]ethyl}-7H-pyrrolo[2,3-d]pyrimidin-4-amine]: the results for the pEC50 in assay [1] and in assay [2] were 7.30 and 7.44, respectively.

`CC(c1cc(-c2ccccc2F)no1)n1cc(-c2ccc(N(C)C)cc2)c2c(N)ncnc21` (stereo not shown) [Example 105, 5-[4-(Dimethylamino)phenyl]-7-{1-[3-(2-fluorophenyl)-1,2-oxazol-5-yl]ethyl}-7H-pyrrolo[2,3-d]pyrimidin-4-amine]: the pEC50 in assay [1] was 6.43; in assay [2] it was 7.12.

`CC(c1cc(-c2ccccc2F)no1)n1cc(-c2ccc(-c3ncns3)cc2)c2c(N)ncnc21` (stereo not shown) [Example 107, 7-{1-[3-(2-Fluorophenyl)-1,2-oxazol-5-yl]ethyl}-5-[4-(1,2,4-thiadiazol-5-yl)phenyl]-7H-pyrrolo[2,3-d]pyrimidin-4-amine]: the results for the pEC50 in assay [1] and in assay [2] were 6.76 and 6.91, respectively.

For the compound `COc1cnc(-c2cn(C(C)c3cc(-c4ccccc4F)no3)c3ncnc(N)c23)cn1` (stereo not shown) [Example 191, 7-{1-[3-(2-Fluorophenyl)-1,2-oxazol-5-yl]ethyl}-5-(5-methoxypyrazin-2-yl)-7H-pyrrolo[2,3-d]pyrimidin-4-amine], the pEC50 in assay [1] was 6.04; in assay [2] it was 6.99.

Consider `N#Cc1ccc(-c2cn(Cc3cnc(-c4ccccc4F)[nH]3)c3ncnc(N)c23)cc1F` [Example 192, 4-(4-Amino-7-{[2-(2-fluorophenyl)-1H-imidazol-5-yl]methyl}-7H-pyrrolo[2,3-d]pyrimidin-5-yl)-2-fluorobenzonitrile], for which the pEC50 in assay [1] is 7.08; in assay [2], 6.93.

`COc1ncccc1-c1cn(Cc2cnc(-c3ccccc3F)[nH]2)c2ncnc(N)c12` [Example 193, 7-{[2-(2-Fluorophenyl)-1H-imidazol-5-yl]methyl}-5-(2-methoxypyridin-3-yl)-7H-pyrrolo[2,3-d]pyrimidin-4-amine]: the results for the pEC50 in assay [1] and in assay [2] were 7.36 and 6.93, respectively.

On to `COc1nc(C)ccc1-c1cn(Cc2cn(-c3ccccc3F)nn2)c2ncnc(N)c12` [Example 194, 7-{[1-(2-Fluorophenyl)-1H-1,2,3-triazol-4-yl]methyl}-5-(2-methoxy-6-methylpyridin-3-yl)-7H-pyrrolo[2,3-d]pyrimidin-4-amine], for which the pEC50 in assay [1] is 7.54; in assay [2], 7.91.

For the compound `COc1ncc(F)cc1-c1cn(Cc2cn(-c3ccccc3F)nn2)c2ncnc(N)c12` [Example 195, 5-(5-Fluoro-2-methoxypyridin-3-yl)-7-{[1-(2-fluorophenyl)-1H-1,2,3-triazol-4-yl]methyl}-7H-pyrrolo[2,3-d]pyrimidin-4-amine], the results for the pEC50 in assay [1] and in assay [2] were 7.20 and 7.60, respectively.

`Nc1ncnc2c1c(-c1cccnc1OC(F)F)cn2Cc1cn(-c2ccccc2F)nn1` [Example 196, 5-[2-(Difluoromethoxy)pyridin-3-yl]-7-{[1-(2-fluorophenyl)-1H-1,2,3-triazol-4-yl]methyl}-7H-pyrrolo[2,3-d]pyrimidin-4-amine]: the pEC50 in assay [1] is 7.81; in assay [2] it was 7.31.

For the compound `Nc1ncnc2c1c(-c1cnco1)cn2Cc1cn(-c2ccccc2F)nn1` [Example 197, 7-{[1-(2-Fluorophenyl)-1H-1,2,3-triazol-4-yl]methyl}-5-(1,3-oxazol-5-yl)-7H-pyrrolo[2,3-d]pyrimidin-4-amine], the pEC50 in assay [1] is 6.59; in assay [2], 6.09.

As to `Nc1ncnc2c1c(C1CCCO1)cn2Cc1cn(-c2ccccc2F)nn1` (stereo not shown) [Example 198, 7-{[1-(2-Fluorophenyl)-1H-1,2,3-triazol-4-yl]methyl}-5-(tetrahydrofuran-2-yl)-7H-pyrrolo[2,3-d]pyrimidin-4-amine], the pEC50 is < 4.60 in assay [1] and 5.67 in assay [2].
